US20210368825A1, “FEED ADDITIVE FOR DAIRY CATTLE COMPRISING N-ACETYL-L-TRYPTOPHAN AS ACTIVE INGREDIENT” (CJ CHEILJEDANG CORPORATION, priority 2018, published 2021)
“And” between values parts separate entries of the source, which are not always exact repeats. Equal values may be shown once. “Also recorded” adds a separate entry of the source.

Key:
[1] = tested on: dairy cattle in dry period; parameters: species or system Holstein Friesian cows; conditions: in vivo
From the text: (§1) From among Holstein Friesian cows in the late stage of gestation corresponding to 60 days before calving, 8 cows were selected in consideration of calving time (expected calving date±15 days), the number of calving (calving number), and the like, and 4 cows were assigned to each of a control (untreated) and a treated group.
(§2) In the present disclosure, as a basal diet fed during a dry period and a milking period, total mixed ration (TMR), roughage, and concentrates were provided in accordance with NRC (2001) nutrition requirements for dry cows. In the case of the treated group, evaluation was performed by supplementing N-acetyl-L-tryptophan (NALT) to the basal diet. Newborn calves were fed with colostrum for 3 days and then fed with milk obtained during a milking process for 8 weeks.
(§3) Evaluation of feed feeding before calving by feeding N-acetyl-L-tryptophan was performed for 60±8 days (error caused by difference in expected calving dates). The control was fed with the basal diet, and the treated group was fed with the basal diet supplemented with 15 g of NALT.
(§4) Blood was collected from dairy cattle and calves during 6 weeks of the dry period and immediately after calving via the jugular vein before feeding a morning feed every 2 weeks for 8 weeks. The collected blood was aliquoted into a serum tube (BD Vacutainer, Plymouth, UK) and a heparin tube (Becton-Dickinson, Belliver Industrial Estate, Plymouth, PL6 7BP, UK) and centrifuged (3,500 rpm, 15 min, 20° C.) to separate plasma.
(§5) Samples for analysis of metabolic changes such as albumin, glutamic-oxalacetic transaminase (GOT), blood urea nitrogen (BUN), triglycerides (TG), cholesterol (CHO), glucose (GLU), and non-esterified fatty acid (NEFA) were aliquoted into a 1.5 mL tube (Eppendorf AG, Hamburg, Germany) in an amount of 500 μL each and stored in a deep freezer at −80° C.

[2] = tested on: dairy cattle after calving; parameters: species or system Holstein Friesian cows; conditions: in vivo
From the text: as §1, §2, §3, §4, §5

[3] = tested on: calves born from dairy cattle; assay: Analysis of weight of calf born from dairy cattle according to NALT feeding; format: in vivo, Holstein Friesian cows (calves); conditions: for weight of calf: mother fed NALT 15 g/d in dry period
From the text: as §1, §2, §3
Weights of calves born from dairy cattle used for the experiment were measured after drying the body surface immediately after calving (before feeding colostrum; using a scale, GL-6000S Series, G-Tech International Co., LTD), and then weights were measured four times in total for 8 weeks at an interval of 2 weeks (weight before feeding milk). Colostrum was obtained from mother cows and fed to calves at 3 a.m. and 3 p.m. until 3 days after calving. Then, 3.8 L of milk was provided per day, and the concentrates were available without limitation from a feed bucket separately for individual animals.

[4] = tested on: dry cows in the late stage of gestation; assay: Analysis of feed intake of dairy cattle according to NALT feeding; format: in vivo, Holstein Friesian cows; conditions: for feed intake: basal diet supplemented with NALT (15 g/d)
From the text: as §1, §2, §3
An amount of the feed left over was recorded for each cow at 9 a.m. every morning to measure a daily feed intake.

CC(=O)N[C@@H](Cc1c[nH]c2ccccc12)C(=O)O [NALT, N-acetyl-L-tryptophan]
Albumin [1]: 3.93 g/dL | Albumin, total AVG [1]: 3.74 g/dL | BUN [1]: 12.25 mg/dL | BUN, total AVG [1]: 9.88 mg/dL | CHO [1]: 194.00 mg/dL | CHO, total AVG [1]: 143.08 mg/dL | GLU [1]: 50.00 mg/dL | GLU, total AVG [1]: 50.52 mg/dL | GOT [1]: 82.50 U/L | GOT, total AVG [1]: 80.92 U/L | TG [1]: 16.25 mg/dL | TG, total AVG [1]: 19.88 mg/dL | effect on metabolic changes of dairy cattle compared with control [1]: did not significantly affect | Albumin [2]: 3.73 g/dL | Albumin, total AVG [2]: 4.01 g/dL | BUN [2]: 10.75 mg/dL | BUN, total AVG [2]: 16.75 mg/dL | CHO [2]: 101.25 mg/dL | CHO, total AVG [2]: 188.45 mg/dL | GLU [2]: 83.75 mg/dL | GLU, total AVG [2]: 68.35 mg/dL | GOT [2]: 87.00 U/L | GOT, total AVG [2]: 89.65 U/L | TG [2]: 8.00 mg/dL | TG, total AVG [2]: 9.45 mg/dL | effect on metabolic changes of dairy cattle compared with control [2]: did not significantly affect | weight of calf, Increment ([3]; 0 to 8 wk): 28.28 kg | weight of calf ([3]; 0 wk (birth weight)): 41.43 kg | weight of calf ([3]; 2 wk after birth): 46.05 kg | weight of calf ([3]; 4 wk after birth): 52.75 kg | weight of calf ([3]; 6 wk after birth): 60.95 kg | weight of calf ([3]; 8 wk after birth): 69.70 kg | weight of calf, total AVG ([3]; average 0 to 8 wk): 54.18 kg | birth weight of calves greater than control ([3]; week 0, on average): 5.47 kg and 5.53 kg | average weight of calves greater than control ([3]; week 2): 5.1 kg | average weight of calves greater than control ([3]; week 4): 4.67 kg | average weight of calves greater than control ([3]; week 6): 4.22 kg | average weight of calves greater than control ([3]; week 8): 5.9 kg | average weight of calves greater than control ([3]; weeks 2, 4, 6 and 8 overall): about 5 kg | overall feed intake compared with control ([4]; 6 weeks of dry period): numerical increase; also recorded: numerically increased | feed intake ([4]; week 0 of dry period): 6.63 kg | feed intake ([4]; week 1 of dry period): 6.85 kg | feed intake compared with control ([4]; week 2, p<0.05): statistically significant increase | feed intake ([4]; week 2 of dry period): 7.73 kg | feed intake ([4]; week 3 of dry period): 7.62 kg | increase in feed intake compared with control ([4]; week 4, control 6.46 kg): 1.43 kg | feed intake ([4]; week 4 of dry period): 7.69 kg | feed intake ([4]; week 5 of dry period): 7.63 kg
